According to US20190314334A1, “COMPOUNDS FOR THE TREATMENT OF AUTOIMMUNE DISEASES” (QUIMATRYX, S.L., priority 2016, published 2019):

Key:
[1] = tested on: Concanavalin A (ConA)-induced hepatitis; test: Concanavalin A (ConA)-induced hepatitis model of autoimmune hepatitis, plasma transaminase (GPT); format: in vivo, Male Balb/C mice; conditions: blood 8 hours after ConA, vehicle 1338 U/L
Protocol: Concanavalin A (ConA)-induced hepatitis is a cell-mediated immunoinflammatory condition that can be induced in mice by a single intravenous injection of ConA. It is typically employed as a model for autoimmune hepatitis. The disease is characterized by a marked increase in the plasma levels of transaminase (GPT) shortly (8-24 hours) after ConA challenge and simultaneous infiltration of the liver with neutrophils, macrophages and T cells followed by apoptosis and necrosis of the hepatocytes. The aim of the present example was to evaluate the effects of a compound of formula (I) (QTX125) on histological and clinical parameters in the model of autoimmune hepatitis induced by ConA. Male Balb/C mice 7-8 weeks old (Envigo, San Pietro al Natisone, Udine, Italy) were kept under standard laboratory conditions (non-specific pathogen free) with free access to food and water and were allowed to adapt at least one week to their environment before commencing the study. ConA (Sigma Chemical, St. Louis, Mo.), was dissolved in sterile phosphate-buffered saline (PBS) and was injected into the tail veins of the animals at the dose of 20 mg/Kg. Three groups of 10 mice were treated at −24 and −1 hours before ConA injection as described in the table below: [table] […] The depth of colour is itself determined by the concentration of analyte in the sample.

[2] = tested on: experimental autoimmune encephalomyelitis induced by myelin oligodendrocyte glycoprotein (MOG); test: MOG-induced experimental autoimmune encephalomyelitis (EAE), paralysis scores; format: in vivo, mice; conditions: variant of Example 2
Protocol: A variant of the animal model of Example 2 was tested. In particular, experimental autoimmune encephalomyelitis was induced by subcutaneous injection of myelin oligodendrocyte glycoprotein (MOG) instead of PLP.

[3] = tested on: PLP-induced EAE; test: PLP-induced experimental autoimmune encephalomyelitis (EAE), clinical grading; format: in vivo, Female SJL mice

O=C(NO)c1ccc(CNC(=O)c2[nH]c(-c3ccc(O)cc3)cc2-c2ccoc2)cc1 [QTX125]
transaminase (GPT) plasma level (light emission) ([1]; 25 mg/Kg i.p. 24 and 1 hour before ConA (20 mg/Kg i.v.)): 606 U/L | transaminase (GPT) plasma level (light emission) ([1]; 50 mg/Kg i.p. 24 and 1 hour before ConA (20 mg/Kg i.v.)): 543 U/L | paralysis scores (EAE clinical grading) [2]: reduced paralysis scores | EAE clinical grading (mouse condition) with respect to vehicle ([3]; 60 mg/Kg i.p. daily for 35 consecutive days, day 7 to day 42 post immunization): substantial improvement of mouse condition | EAE clinical grading (mouse condition) with respect to dexamethasone ([3]; 60 mg/Kg i.p. daily vs dexamethasone 0.3 mg/Kg, greater part of the treatment, particularly at the end): even ameliorated with respect to dexamethasone
